# Measurements from patent US8580764B2, “Combinational compositions and methods for treatment of cancer” (ArQule, Inc., priority 2010, dated 2013).
# Read-outs that look alike come from different tables or passages of the source.
# Key:
# [1] = tested on: cancer cells; assay: Cell cycle analysis of dosing regimen A (FIG. 8); format: cell-based; details: dosing regimen A of FIG. 3
# Method: (§1) Cells were plated on day 0.
# [2] = tested on: cell cycle check point; assay: Activation of cell cycle check point during dosing regimen A (FIG. 9); format: cell-based; details: dosing regimen A of FIG. 3
# Method: as §1
# [3] = tested on: cancer cells; details: cited from earlier work
# [4] = target: T1, c-Met (Homo sapiens, UniProt P08581); details: c-Met expressing cancer cell lines; cited from earlier work
# T1 construct: Exposure of c-Met expressing cancer cell lines; endogenous in cells
# [5] = tested on: human tumors; details: multiple mouse xenograft efficacy studies; cited from earlier work
# T1 sequence (P08581 25-1390): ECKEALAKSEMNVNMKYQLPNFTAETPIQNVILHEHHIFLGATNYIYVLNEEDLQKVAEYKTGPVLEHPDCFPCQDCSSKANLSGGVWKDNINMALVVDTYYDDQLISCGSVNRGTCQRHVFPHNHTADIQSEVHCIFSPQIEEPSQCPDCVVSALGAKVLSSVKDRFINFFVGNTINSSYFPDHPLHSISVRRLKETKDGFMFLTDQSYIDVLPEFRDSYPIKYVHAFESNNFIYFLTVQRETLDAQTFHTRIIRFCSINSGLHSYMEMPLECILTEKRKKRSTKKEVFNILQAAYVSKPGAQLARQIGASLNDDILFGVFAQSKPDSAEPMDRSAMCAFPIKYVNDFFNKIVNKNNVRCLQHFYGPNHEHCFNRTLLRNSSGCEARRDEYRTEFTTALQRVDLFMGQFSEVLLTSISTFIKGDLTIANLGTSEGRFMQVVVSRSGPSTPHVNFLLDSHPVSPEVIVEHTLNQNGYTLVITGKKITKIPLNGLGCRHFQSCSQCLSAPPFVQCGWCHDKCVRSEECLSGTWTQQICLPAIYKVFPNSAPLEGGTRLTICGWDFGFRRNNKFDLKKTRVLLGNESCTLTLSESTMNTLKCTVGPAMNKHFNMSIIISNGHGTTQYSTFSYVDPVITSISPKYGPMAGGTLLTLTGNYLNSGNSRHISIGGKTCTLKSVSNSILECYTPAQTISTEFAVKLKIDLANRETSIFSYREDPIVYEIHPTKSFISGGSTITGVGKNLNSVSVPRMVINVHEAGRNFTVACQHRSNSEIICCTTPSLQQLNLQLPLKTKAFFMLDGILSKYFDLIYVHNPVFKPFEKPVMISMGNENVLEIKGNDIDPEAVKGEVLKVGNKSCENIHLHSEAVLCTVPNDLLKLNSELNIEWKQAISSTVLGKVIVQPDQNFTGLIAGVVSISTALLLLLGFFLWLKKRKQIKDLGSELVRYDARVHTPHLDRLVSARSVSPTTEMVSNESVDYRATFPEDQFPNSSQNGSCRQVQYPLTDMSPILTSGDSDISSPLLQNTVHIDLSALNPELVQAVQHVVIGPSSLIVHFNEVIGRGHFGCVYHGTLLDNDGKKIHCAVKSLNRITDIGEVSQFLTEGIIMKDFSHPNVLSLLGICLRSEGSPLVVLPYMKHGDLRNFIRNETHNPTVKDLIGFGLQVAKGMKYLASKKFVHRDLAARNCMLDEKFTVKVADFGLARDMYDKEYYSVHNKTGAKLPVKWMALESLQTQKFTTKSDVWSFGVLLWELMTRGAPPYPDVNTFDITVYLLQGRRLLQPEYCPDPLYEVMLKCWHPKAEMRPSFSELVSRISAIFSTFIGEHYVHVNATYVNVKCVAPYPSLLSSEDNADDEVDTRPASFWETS
SMILES,cell cycle arrest [1],activation of cell cycle check point [2],cell cycle arrest [3],phospho-c-Met levels and cell death [4],growth of human tumors [5]
Nc1ccn([C@@H]2O[C@H](CO)[C@@H](O)C2(F)F)c(=O)n1 [gemcitabine],S-phase arrest,activation of cell cycle check point,arrest cancer cells in G1/S phase,–,–
"O=C1NC(=O)[C@@H](c2cn3c4c(cccc24)CCC3)[C@@H]1c1c[nH]c2ccccc12 [Agent A, (−)-trans-3-(5,6-dihydro-4H-pyrrolo[3,2,1-ij]quinolin-1-yl)-4-(1H-indol-3-yl)pyrrolidine-2,5-dione]",G2/M arrest,–,–,decrease in phospho-c-Met levels with eventual apoptotic cell death,inhibited the growth of human tumors
